Here are results for 6 compounds from article PMC6230509 (Neuropharmacology, 2018).

Each structure is given as a SMILES string.

As a reminder, the Ki is a measure of affinity in units of concentration, obtained from inhibition or displacement.

One assay addresses 5-HT2A (Homo sapiens, UniProt P28223). The experiment in a line: NIMH PDSP radioligand competition binding, 5-HT2A. A general note: In a radioligand displacement assay an active substance lowers the binding of a labelled ligand.
For a further assay, the target named is T1, α1A (Homo sapiens, UniProt P35348).
T1 sequence (P35348 1-466): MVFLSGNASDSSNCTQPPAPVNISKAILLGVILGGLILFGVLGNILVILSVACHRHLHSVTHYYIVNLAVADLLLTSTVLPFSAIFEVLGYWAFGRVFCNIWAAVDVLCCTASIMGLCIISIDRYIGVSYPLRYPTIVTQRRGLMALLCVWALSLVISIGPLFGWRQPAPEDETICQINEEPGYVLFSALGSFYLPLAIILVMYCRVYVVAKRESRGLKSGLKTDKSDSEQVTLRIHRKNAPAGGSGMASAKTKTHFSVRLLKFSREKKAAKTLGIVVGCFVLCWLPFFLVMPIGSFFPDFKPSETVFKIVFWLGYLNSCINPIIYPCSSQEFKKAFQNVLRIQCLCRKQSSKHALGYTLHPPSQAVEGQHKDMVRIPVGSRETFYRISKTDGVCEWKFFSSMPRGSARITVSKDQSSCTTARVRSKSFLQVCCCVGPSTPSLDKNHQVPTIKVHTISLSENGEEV
Put plainly: NIMH PDSP radioligand competition binding, α1A.

Assay [1] deals with dopamine transporter (DAT) (Homo sapiens, UniProt Q01959). Put plainly: NIMH PDSP radioligand competition binding, DAT.
Chain of dopamine transporter (DAT) (Q01959 whole entry): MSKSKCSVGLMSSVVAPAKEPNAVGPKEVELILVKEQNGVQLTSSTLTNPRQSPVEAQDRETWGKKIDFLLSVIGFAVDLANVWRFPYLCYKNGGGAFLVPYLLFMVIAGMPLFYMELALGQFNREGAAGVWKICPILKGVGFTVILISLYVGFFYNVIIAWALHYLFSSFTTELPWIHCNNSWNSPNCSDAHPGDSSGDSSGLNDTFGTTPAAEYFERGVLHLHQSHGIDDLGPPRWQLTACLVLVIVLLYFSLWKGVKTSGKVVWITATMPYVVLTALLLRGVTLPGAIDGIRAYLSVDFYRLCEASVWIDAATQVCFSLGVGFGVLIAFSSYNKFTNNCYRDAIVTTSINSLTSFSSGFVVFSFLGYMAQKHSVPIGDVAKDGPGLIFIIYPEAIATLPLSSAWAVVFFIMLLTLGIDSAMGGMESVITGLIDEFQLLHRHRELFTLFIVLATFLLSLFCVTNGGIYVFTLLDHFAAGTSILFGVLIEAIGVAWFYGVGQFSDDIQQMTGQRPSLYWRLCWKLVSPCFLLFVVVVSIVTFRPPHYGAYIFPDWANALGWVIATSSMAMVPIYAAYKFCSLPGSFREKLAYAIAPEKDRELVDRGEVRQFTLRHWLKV
A further assay addresses μ-opioid receptor (MOR) (Homo sapiens, UniProt P35372). Put plainly: NIMH PDSP radioligand competition binding, MOR.
For another assay, the target named is σ1 (Rattus norvegicus, UniProt Q9R0C9). The experiment in a line: NIMH PDSP radioligand competition binding, σ1.
Chain of σ1 (Q9R0C9 whole entry): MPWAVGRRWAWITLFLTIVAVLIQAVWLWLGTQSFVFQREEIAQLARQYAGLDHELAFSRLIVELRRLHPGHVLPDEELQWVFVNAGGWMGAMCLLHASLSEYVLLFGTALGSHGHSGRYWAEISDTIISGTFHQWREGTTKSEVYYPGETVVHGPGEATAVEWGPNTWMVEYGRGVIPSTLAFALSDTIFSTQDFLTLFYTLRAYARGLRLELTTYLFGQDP
In a further assay the target is T2, σ2 (Rattus norvegicus, UniProt Q5U3Y7).
T2 sequence (Q5U3Y7 1-176): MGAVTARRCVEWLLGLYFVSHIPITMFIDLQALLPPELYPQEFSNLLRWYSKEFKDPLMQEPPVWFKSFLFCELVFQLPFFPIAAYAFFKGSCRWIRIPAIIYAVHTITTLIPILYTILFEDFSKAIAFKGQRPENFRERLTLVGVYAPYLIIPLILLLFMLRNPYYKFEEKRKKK
Put plainly: NIMH PDSP radioligand competition binding, σ2.

Chain of 5-HT2A (P28223 whole entry, looked up): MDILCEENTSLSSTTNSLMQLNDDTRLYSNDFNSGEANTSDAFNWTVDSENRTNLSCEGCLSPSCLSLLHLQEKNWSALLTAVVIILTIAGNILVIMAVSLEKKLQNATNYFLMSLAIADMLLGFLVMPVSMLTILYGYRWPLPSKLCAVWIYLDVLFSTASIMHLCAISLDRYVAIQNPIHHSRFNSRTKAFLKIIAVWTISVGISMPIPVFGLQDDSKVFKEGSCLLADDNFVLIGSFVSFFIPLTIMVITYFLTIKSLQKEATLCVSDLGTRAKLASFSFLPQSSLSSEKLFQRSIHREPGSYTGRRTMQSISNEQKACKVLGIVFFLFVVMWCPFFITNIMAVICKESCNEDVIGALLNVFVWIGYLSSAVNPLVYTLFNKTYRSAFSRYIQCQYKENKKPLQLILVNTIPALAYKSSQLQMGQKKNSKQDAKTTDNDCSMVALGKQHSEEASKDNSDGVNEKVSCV
Chain of μ-opioid receptor (MOR) (P35372 whole entry): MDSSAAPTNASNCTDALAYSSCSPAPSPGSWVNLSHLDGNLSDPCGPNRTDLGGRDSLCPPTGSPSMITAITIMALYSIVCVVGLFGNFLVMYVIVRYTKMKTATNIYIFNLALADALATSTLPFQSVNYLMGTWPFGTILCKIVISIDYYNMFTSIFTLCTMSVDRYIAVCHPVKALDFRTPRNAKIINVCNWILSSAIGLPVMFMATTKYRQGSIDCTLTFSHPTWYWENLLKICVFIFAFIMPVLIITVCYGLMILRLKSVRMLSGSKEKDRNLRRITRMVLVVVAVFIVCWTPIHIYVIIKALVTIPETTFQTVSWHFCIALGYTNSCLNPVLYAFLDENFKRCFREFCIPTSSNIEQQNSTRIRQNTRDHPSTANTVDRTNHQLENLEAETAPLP

As to `C=CCN(CC=C)CCc1c(-c2ccccc2)[nH]c2ccccc12` [2-Ph-DALT, 2-phenyl-N,N-diallyltryptamine], the “5-HT2A binding affinity, fold higher than the affinity of DALT” value on 5-HT2A came out at 54 fold. Further, the Ki is 0.013 µM at 5-HT2A; 0.075 µM at α1A; 0.746 µM in assay [1]; more than 10 µM at μ-opioid receptor (MOR); more than 10 µM on σ1; 0.717 µM on σ2. At 5-HT2A (relative to any other DALT derivative), the “5-HT2A binding affinity, fold higher than the affinity of any other DALT derivative” value was “at least 10 fold”.
On to `C=CCN(CC=C)CCc1c[nH]c2cccc(OC(C)=O)c12` [4-AcO-DALT, 4-acetoxy-N,N-diallyltryptamine], for which the Ki was 0.565 µM at 5-HT2A; more than 10 µM on α1A; more than 10 µM in assay [1]; more than 10 µM at μ-opioid receptor (MOR); 0.299 µM at σ1; more than 10 µM on σ2.
Turning to `C=CCN(CC=C)CCc1c[nH]c2cccc(O)c12` [4-HO-DALT, 4-hydroxy-N,N-diallyltryptamine], the Ki at 5-HT2A is 0.652 µM; at α1A it was more than 10 µM; in assay [1], more than 10 µM; at μ-opioid receptor (MOR), more than 10 µM; on σ1, 2.77 µM; at σ2 it was more than 10 µM.
In the case of `C=CCN(CC=C)CCc1c(C)[nH]c2ccc(F)cc12` [5-F-2-Me-DALT, 5-fluoro-2-methyl-N,N-diallyltryptamine], the Ki on 5-HT2A is 0.655 µM; on α1A, 1.57 µM; in assay [1], 2.21 µM; at μ-opioid receptor (MOR), more than 10 µM; on σ1, 0.531 µM; on σ2 it was 0.396 µM.
For `C=CCN(CC=C)CCc1c(C)[nH]c2ccc(OC)cc12` [5-MeO-2-Me-DALT, 5-methoxy-2-methyl-N,N-diallyltryptamine], the Ki on 5-HT2A was 1.15 µM; at α1A it was 1.2 µM; in assay [1], 2.41 µM; at μ-opioid receptor (MOR), more than 10 µM; at σ1 it was 0.427 µM; on σ2, 1.24 µM.
`C=CCN(CC=C)CCc1c[nH]c2c(CC)cccc12` [7-Et-DALT, 7-ethyl-N,N-diallyltryptamine]: the Ki on 5-HT2A is 1.52 µM; at α1A, more than 10 µM; in assay [1] it was 1.73 µM; at μ-opioid receptor (MOR), 2.67 µM; at σ1 it was 0.022 µM; on σ2, 0.136 µM. Besides, the “σ1 affinity, fold higher than the parent compound” value on σ1 (relative to DALT) was approximately 5 fold.
